Experimental data taken from the CheMixHub drug solubility set.

Assay: xn = mol fraction of the nth substance listed, in the solute-free solvent

CCCCN1CCCCC1C(=O)Nc1c(C)cccc1C.Cl.O (stereo unspecified) + CO + O
solubility (g/100 g solution)
Conditions | 293.15 K | 298.15 K | 303.15 K | 308.15 K | 313.15 K | 318.15 K | 323.15 K | 328.15 K | 333.15 K
x2 = 0.1 | 2.92 | 3.74 | 5.36 | 6.77 | 8.14 | 9.76 | 11.3 | 13.1 | 14.9
x2 = 0.2 | 3.04 | 4.11 | 5.31 | 7.06 | 9.3 | 11.4 | 14.1 | 15.8 | 19.5
x2 = 0.3 | 3.57 | 4.29 | 5.13 | 7.32 | 10.9 | 14.7 | 19.7 | 25.1 | 30.3
x2 = 0.4 | 3.64 | 4.18 | 5.89 | 7.92 | 11.9 | 17.4 | 22.3 | 28 | 33.2
x2 = 0.5 | 4.08 | 4.96 | 6.91 | 9.37 | 13.3 | 18.7 | 23.4 | 28.9 | 35.2
x2 = 0.6 | 5.88 | 6.91 | 8.26 | 10.9 | 14.8 | 19.1 | 23.4 | 29.8 | 35.8
x2 = 0.7 | 7.34 | 8.09 | 9.74 | 12.7 | 16.6 | 19.9 | 23.5 | 30.3 | 36.2
x2 = 0.8 | 8.13 | 9.32 | 12 | 14.3 | 17.3 | 20.6 | 24.5 | 30.2 | –
x2 = 0.9 | 8.65 | 10.1 | 13 | 16 | 18.9 | 21.6 | 25.4 | 30.3 | –

O=[N+]([O-])c1cc[nH]n1 + CO + O
solubility (g/100 g solution)
Conditions | 283.15 K | 288.15 K | 293.15 K | 298.15 K | 303.15 K | 308.15 K | 313.15 K | 318.15 K | 323.15 K
x2 = 0.05881 | 0.466 | 0.609 | 0.793 | 1.01 | 1.33 | 1.69 | 2.27 | 2.94 | 3.85
x2 = 0.1233 | 0.564 | 0.712 | 0.875 | 1.08 | 1.38 | 1.73 | 2.29 | 2.92 | 3.79
x2 = 0.1942 | 0.925 | 1.17 | 1.41 | 1.73 | 2.13 | 2.68 | 3.46 | 4.36 | 5.66
x2 = 0.2727 | 1.15 | 1.42 | 1.77 | 2.15 | 2.73 | 3.42 | 4.48 | 5.7 | 7.33
x2 = 0.3599 | 1.39 | 1.69 | 2.12 | 2.57 | 3.22 | 4.01 | 5 | 6.42 | 8.34
x2 = 0.4576 | 1.45 | 1.83 | 2.28 | 2.77 | 3.46 | 4.3 | 5.39 | 6.94 | 8.92
x2 = 0.5675 | 1.51 | 1.85 | 2.27 | 2.8 | 3.45 | 4.33 | 5.46 | 6.85 | 8.68
x2 = 0.6923 | 1.5 | 1.84 | 2.25 | 2.74 | 3.41 | 4.19 | 5.28 | 6.7 | 8.39
x2 = 0.835 | 1.44 | 1.82 | 2.25 | 2.79 | 3.66 | 4.99 | 6.1 | 7.64 | 9.23

Cc1ccc(Nc2nccc(N(C)c3ccc4c(C)n(C)nc4c3)n2)cc1S(N)(=O)=O + CCO + CC#N
solubility (g/100 g solution)
Conditions | 288.15 K | 293.15 K | 298.15 K | 303.15 K | 308.15 K | 313.15 K | 318.15 K | 323.15 K | 328.15 K
x2 = 0.1822 | 0.0124 | 0.029 | 0.0444 | 0.063 | 0.0838 | 0.104 | 0.125 | 0.149 | 0.177
x2 = 0.3727 | 0.026 | 0.0514 | 0.0739 | 0.101 | 0.129 | 0.157 | 0.187 | 0.22 | 0.258
x2 = 0.572 | 0.0528 | 0.0704 | 0.0887 | 0.11 | 0.133 | 0.16 | 0.189 | 0.221 | 0.256
x2 = 0.7809 | 0.0195 | 0.035 | 0.0514 | 0.0677 | 0.086 | 0.104 | 0.123 | 0.145 | 0.17
